According to the NIST ThermoML archive (doi:10.1016/j.jct.2012.05.023):
± gives the expanded uncertainty stated by the source.

Assays:
[1] = xn = mol fraction of the nth substance listed; details: 101.3 kPa, Liquid; for speed of sound: Sing-around technique in a fixed-path interferometer; for mass density: Vibrating tube method
[2] = refractive index (Na D-line) (dimensionless); xn = mol fraction of the nth substance listed; details: 101.3 kPa, Liquid, Standard Abbe refractometry

c1ccc2c(c1)CCCC2 [1,2,3,4-tetrahydronaphthalene] + CCCCCCCCCCCC
Details | mass density, [1] [kg/m3] | refractive index, [2] | speed of sound, [1] [m/s]
293.15 K, x1 = 0.1021 | 763.04 ± 0.24 | 1.42964 ± 0.00037 | 1308.1 ± 1.2
293.15 K, x1 = 0.2015 | 777.99 ± 0.24 | 1.43768 ± 0.00037 | 1318.1 ± 1.2
293.15 K, x1 = 0.307 | 795.31 ± 0.24 | 1.44691 ± 0.00037 | 1331.6 ± 1.2
293.15 K, x1 = 0.3998 | 811.97 ± 0.24 | 1.45578 ± 0.00037 | 1344 ± 1.2
293.15 K, x1 = 0.4985 | 831.41 ± 0.24 | 1.46621 ± 0.00037 | 1359.7 ± 1.2
293.15 K, x1 = 0.5961 | 852.66 ± 0.24 | 1.47773 ± 0.00037 | 1377 ± 1.2
293.15 K, x1 = 0.7019 | 878.22 ± 0.24 | 1.49155 ± 0.00037 | 1399.4 ± 1.2
293.15 K, x1 = 0.8012 | 905.15 ± 0.24 | 1.5062 ± 0.00037 | 1423.8 ± 1.2
293.15 K, x1 = 0.8998 | 935.03 ± 0.25 | 1.52267 ± 0.00037 | 1453.4 ± 1.2
293.15 K, x1 = 1 | 969.52 ± 0.23 | 1.54155 ± 0.00037 | 1489.5 ± 1.3
303.15 K, x1 = 0.1021 | 755.74 ± 0.24 | 1.42538 ± 0.00037 | 1269.8 ± 1.2
303.15 K, x1 = 0.2015 | 770.65 ± 0.24 | 1.43335 ± 0.00037 | 1280 ± 1.2
303.15 K, x1 = 0.307 | 787.92 ± 0.24 | 1.44249 ± 0.00037 | 1293.4 ± 1.2
303.15 K, x1 = 0.3998 | 804.53 ± 0.24 | 1.45151 ± 0.00037 | 1306 ± 1.2
303.15 K, x1 = 0.4985 | 823.91 ± 0.24 | 1.46183 ± 0.00037 | 1321.7 ± 1.2
303.15 K, x1 = 0.5961 | 845.1 ± 0.24 | 1.47333 ± 0.00037 | 1339 ± 1.2
303.15 K, x1 = 0.7019 | 870.59 ± 0.24 | 1.48719 ± 0.00037 | 1361.2 ± 1.2
303.15 K, x1 = 0.8012 | 897.44 ± 0.24 | 1.50172 ± 0.00037 | 1385.4 ± 1.2
303.15 K, x1 = 0.8998 | 927.23 ± 0.25 | 1.51815 ± 0.00037 | 1414.7 ± 1.2
303.15 K, x1 = 1 | 961.59 ± 0.23 | 1.53687 ± 0.00037 | 1450.1 ± 1.2
313.15 K, x1 = 0.1021 | 748.42 ± 0.24 | 1.42102 ± 0.00037 | 1232.1 ± 1.2
313.15 K, x1 = 0.2015 | 763.25 ± 0.24 | 1.42887 ± 0.00037 | 1242.2 ± 1.2
313.15 K, x1 = 0.307 | 780.5 ± 0.24 | 1.43817 ± 0.00037 | 1255.9 ± 1.2
313.15 K, x1 = 0.3998 | 797.07 ± 0.24 | 1.44709 ± 0.00037 | 1268.5 ± 1.2
313.15 K, x1 = 0.4985 | 816.39 ± 0.24 | 1.45748 ± 0.00037 | 1284.3 ± 1.2
313.15 K, x1 = 0.5961 | 837.52 ± 0.24 | 1.46884 ± 0.00037 | 1301.5 ± 1.2
313.15 K, x1 = 0.7019 | 862.94 ± 0.24 | 1.48267 ± 0.00037 | 1323.6 ± 1.2
313.15 K, x1 = 0.8012 | 889.71 ± 0.24 | 1.49723 ± 0.00037 | 1347.6 ± 1.2
313.15 K, x1 = 0.8998 | 919.41 ± 0.25 | 1.51359 ± 0.00037 | 1376.6 ± 1.2
313.15 K, x1 = 1 | 953.66 ± 0.23 | 1.53216 ± 0.00037 | 1411.5 ± 1.2
323.15 K, x1 = 0.1021 | 741.07 ± 0.25 | 1.4166 ± 0.00037 | 1194.9 ± 1.2
323.15 K, x1 = 0.2015 | 755.85 ± 0.24 | 1.42456 ± 0.00037 | 1205.4 ± 1.2
323.15 K, x1 = 0.307 | 773.06 ± 0.24 | 1.43374 ± 0.00037 | 1218.9 ± 1.2
323.15 K, x1 = 0.3998 | 789.61 ± 0.24 | 1.44258 ± 0.00037 | 1231.6 ± 1.2
323.15 K, x1 = 0.4985 | 808.85 ± 0.24 | 1.45304 ± 0.00037 | 1247.4 ± 1.2
323.15 K, x1 = 0.5961 | 829.89 ± 0.24 | 1.46437 ± 0.00037 | 1264.5 ± 1.2
323.15 K, x1 = 0.7019 | 855.26 ± 0.24 | 1.47817 ± 0.00037 | 1286.7 ± 1.2
323.15 K, x1 = 0.8012 | 881.98 ± 0.24 | 1.49269 ± 0.00037 | 1310.5 ± 1.2
323.15 K, x1 = 0.8998 | 911.58 ± 0.25 | 1.50898 ± 0.00037 | 1339.2 ± 1.2
323.15 K, x1 = 1 | 945.72 ± 0.23 | 1.52752 ± 0.00037 | 1373.6 ± 1.2
333.15 K, x1 = 0.1021 | 733.68 ± 0.25 | 1.41223 ± 0.00037 | 1158.3 ± 1.2
333.15 K, x1 = 0.2015 | 748.42 ± 0.25 | 1.42011 ± 0.00037 | 1168.6 ± 1.2
333.15 K, x1 = 0.307 | 765.58 ± 0.24 | 1.42925 ± 0.00037 | 1182.6 ± 1.2
333.15 K, x1 = 0.3998 | 782.08 ± 0.24 | 1.43819 ± 0.00037 | 1195.2 ± 1.2
333.15 K, x1 = 0.4985 | 801.28 ± 0.24 | 1.44856 ± 0.00037 | 1211 ± 1.2
333.15 K, x1 = 0.5961 | 822.25 ± 0.24 | 1.45998 ± 0.00037 | 1228.2 ± 1.2
333.15 K, x1 = 0.7019 | 847.55 ± 0.24 | 1.47364 ± 0.00037 | 1250.3 ± 1.2
333.15 K, x1 = 0.8012 | 874.21 ± 0.24 | 1.48822 ± 0.00037 | 1274 ± 1.2
333.15 K, x1 = 0.8998 | 903.72 ± 0.25 | 1.5043 ± 0.00037 | 1302.5 ± 1.2
333.15 K, x1 = 1 | 937.77 ± 0.23 | 1.52274 ± 0.00037 | 1336.4 ± 1.2
343.15 K, x1 = 0.1021 | 726.25 ± 0.25 | 1.4078 ± 0.00037 | 1122.2 ± 1.2
343.15 K, x1 = 0.2015 | 740.94 ± 0.25 | 1.41563 ± 0.00037 | 1132.6 ± 1.2
343.15 K, x1 = 0.307 | 758.06 ± 0.24 | 1.42483 ± 0.00037 | 1146.8 ± 1.2
343.15 K, x1 = 0.3998 | 774.5 ± 0.24 | 1.43363 ± 0.00037 | 1159.3 ± 1.2
343.15 K, x1 = 0.4985 | 793.67 ± 0.24 | 1.44396 ± 0.00037 | 1175.4 ± 1.2
343.15 K, x1 = 0.5961 | 814.59 ± 0.24 | 1.45528 ± 0.00037 | 1192.4 ± 1.2
343.15 K, x1 = 0.7019 | 839.81 ± 0.24 | 1.46911 ± 0.00037 | 1214.6 ± 1.2
343.15 K, x1 = 0.8012 | 866.35 ± 0.24 | 1.48355 ± 0.00037 | 1238.2 ± 1.2
343.15 K, x1 = 0.8998 | 895.83 ± 0.25 | 1.49932 ± 0.00037 | 1266.4 ± 1.2
343.15 K, x1 = 1 | 929.8 ± 0.23 | 1.51795 ± 0.00037 | 1299.8 ± 1.2
